Molecular target: T1, human PDE5 (Homo sapiens, UniProt O76074)
T1 construct: from tissue; host or cells: platelets from fresh blood of human donors (lysate, 10,000 g supernatant)
Assay: Inhibition of the type 5 phosphodiesterase (PDE5) activity, modified SPA test with platelet lysate
Type: biochemical
Settings: PDE5 from human platelet lysate, 0.5 μM cGMP
Protocol: Method for Measuring Inhibition of the Type 5 Phosphodiesterase (PDE5) Activity:
As a source for human PDE5, platelets are used. For that purpose, 150 ml fresh blood from human donors anticoagulated with citrate [final concentration 0.3% (w/v)] is centrifuged at 200 g for 10 min to obtain the so-called platelet-rich-plasma (PRP) as a supernatant. 1/10 volume of ACD solution (85 mM Na3-citrate, 111 mM D-glucose, 71 mM citric acid, pH 4.4) is added to 9/10 volume of PRP. After centrifugation (1,400 g, 10 min) the cell pellet is resuspended in 3 ml homogenization buffer (NaCl 140 mM, KCl 3.8 mM, EGTA (ethylene glycol tetraacetic acid) 1 mM, MgCl2 1 mM, Tris-HCl 20 mM, beta-mercaptoethanol 1 mM, pH 8.2) plus protease-inhibitor mix giving rise to the final concentrations of 0.5 mM Pefablock (Roche), 10 μM Leupeptin, 5 μM Trypsininhibitor, 2 mM Benzamidin and 10 μM Pepstatin A. The suspension is sonified and thereafter centrifuged for 15 min at 10,000 g. The resulting supernatant (platelet lysate) is used for enzymatic testings.
PDE5A1 activity is inhibited by the compounds of the invention in a modified SPA (scintillation proximity assay) test, supplied by Amersham Biosciences (see procedural instructions “phosphodiesterase [3H]cAMP SPA enzyme assay, code TRKQ 7090”), carried out in 96-well microtitre plates (MTP's). The test volume is 100 μl and contains 20 mM Tris buffer (pH 7.4), 0.1 mg of BSA (bovine serum albumin)/ml, 5 mM Mg^2+, 1 μM motapizone, 10 nM PDE2 inhibitor 2-(3,4-dimethoxybenzyl)-7-[(1R,2R)-2-hydroxy-1-(2-phenylethyl)propyl]-5-methylimidazo[5,1-f][1,2,4]triazin-4(3H)-one, 0.5 μM cGMP (cyclic guanosine monophosphate) (including about 50,000 cpm of [3H]cGMP as a tracer), 1 μl of the respective compound dilution in dimethylsulfoxide (DMSO) and sufficient PDE5-containing platelet lysat (10,000×g supernatant, see above) to ensure that 10-20 wt % of the cGMP is converted under the said experimental conditions. […] After a preincubation of 5 min at 37° C., the reaction is started by adding the substrate (cGMP) and the assay is incubated for a further 15 min; after that, it is stopped by adding SPA beads (50 μl). In accordance with the manufacturer's instructions, the SPA beads had previously been resuspended in water, but are then diluted 1:3 (v/v) in water; the diluted solution also contains 3 mM […] (IBMX) to ensure a complete PDE activity stop. After the beads have been sedimented (>30 min), the MTP's are analyzed in commercially available luminescence detection de-vices. The corresponding IC50 values of the compounds for the inhibition of PDE activity are deter-mined from the concentration-effect curves by means of non-linear regression.

Row | IC50 | Structure (SMILES)
1 | 0.407 nM | COc1ccc(-c2ncnc3c(C(=O)N[C@H]4CC[C@H](NC(=O)C5(O)CC5)CC4)c[nH]c23)c(OCC2CC2)c1 [Example 201, trans-4-(2-Cyclopropylmethoxy-4-methoxy-phenyl)-5H-pyrrolo[3,2-d]pyrimidine-7-carboxylic acid {4-[(1-hydroxy-cyclopropanecarbonyl)-amino]-cyclohexyl}-amide]
2 | 0.166 nM | O=C(N[C@H]1CC[C@H](C(=O)NC2CC2)CC1)c1c[nH]c2c(-c3c(OCC4CCC4)ccc4c3OCO4)ncnc12 [Example 276, trans-4-(5-Cyclobutylmethoxy-benzo[1,3]dioxol-4-yl)-5H-pyrrolo[3,2-d]pyrimidine-7-carboxylic acid (4-cyclopropylcarbamoyl-cyclohexyl)-amide]
3 | 1.86 nM | COc1ccc(OCC2CC2)c(-c2ncnc3c(C(=O)N[C@H]4CC[C@@H](NC(=O)CO)CC4)c[nH]c23)c1 [Example 208, cis-4-(2-Cyclopropylmethoxy-5-methoxy-phenyl)-5H-pyrrolo[3,2-d]pyrimidine-7-carboxylic acid [4-(2-hydroxy-acetylamino)-cyclohexyl]-amide]
4 | 0.603 nM | COc1ccc(OCC2CC2)c(-c2ncnc3c(C(=O)N[C@H]4CC[C@H](NC(=O)C5CC5)CC4)c[nH]c23)c1 [Example 64, trans-4-(2-Cyclopropylmethoxy-5-methoxy-phenyl)-5H-pyrrolo[3,2-d]pyrimidine-7-carboxylic acid [4-(cyclopropanecarbonyl-amino)cyclohexyl]-amide]
5 | 0.692 nM | COCC(=O)N1CCC(NC(=O)c2c[nH]c3c(-c4cc(F)c(OC)cc4OCC4CC4)ncnc23)CC1 [Example 109, 4-(2-Cyclopropylmethoxy-5-fluoro-4-methoxy-phenyl)-5H-pyrrolo[3,2-d]pyrimidine-7-carboxylic acid [1-(2-methoxy-ethanoyl)-piperidin-4-yl]amide]
6 | 1.07 nM | O=C(NCC1CN(C(=O)CO)CCO1)c1c[nH]c2c(-c3c(OCC4CC4)ccc4c3OCO4)ncnc12 (stereo not shown) [Example 193, 4-(5-Cyclopropylmethoxy-benzo[1,3]dioxol-4-yl)-5H-pyrrolo[3,2-d]pyrimidine-7-carboxylic acid [4-(2-hydroxy-acetyl)morpholin-2-ylmethyl]-amide]
7 | 0.182 nM | O=C(NC1CCN(C(=O)C2(O)CC2)CC1)c1c[nH]c2c(-c3c(OCC4CC4)ccc4c3OCO4)ncnc12 [Example 179, 4-(5-Cyclopropylmethoxy-benzo[1,3]dioxol-4-yl)-5H-pyrrolo[3,2-d]pyrimidine-7-carboxylic acid {1-[1-(1-hydroxy-cyclopropyl)methanoyl]-piperidin-4-yl}-amide]
8 | 0.389 nM | O=C(N[C@@H]1CCN(C(=O)C2CC2)C1)c1c[nH]c2c(-c3c(OCC4CC4)ccc4c3OCO4)ncnc12 [Example 16, 4-(5-Cyclopropylmethoxy-benzo[1,3]dioxol-4-yl)-5H-pyrrolo[3,2-d]pyrimidine-7-carboxylic acid [(R)-1-(1-cyclopropyl-methanoyl)-pyrrolidin-3-yl]amide]
9 | 0.525 nM | COCC(=O)N1CCC(NC(=O)c2c[nH]c3c(-c4ccc(OC)cc4OCC4CC4)ncnc23)CC1 [Example 61, 4-(2-Cyclopropylmethoxy-4-methoxy-phenyl)-5H-pyrrolo[3,2-d]pyrimidine-7-carboxylic acid [1-(2-methoxy-ethanoyl)-piperidin-4-yl]amide]
10 | 1.15 nM | COCC(=O)N[C@H]1CC[C@H](NC(=O)c2c[nH]c3c(-c4cc(OC)ccc4OCC4CC4)ncnc23)CC1 [Example 65, trans-4-(2-Cyclopropylmethoxy-5-methoxy-phenyl)-5H-pyrrolo[3,2-d]pyrimidine-7-carboxylic acid [4-(2-methoxy-acetylamino)-cyclohexyl]-amide]
11 | 1.35 nM | COc1cc(OCC2CC2)c(-c2ncnc3c(C(=O)N[C@@H]4CCN(C(=O)CO)C4)c[nH]c23)cc1F [Example 241, 4-(2-Cyclopropylmethoxy-5-fluoro-4-methoxy-phenyl)-5H-pyrrolo[3,2-d]pyrimidine-7-carboxylic acid [(R)-1-(2-hydroxy-acetyl)pyrrolidin-3-yl]-amide]
12 | 5.25 nM | CCOC(=O)N[C@H]1CC[C@@H](NC(=O)c2c[nH]c3c(-c4c(OCCOC)ccc5c4OCO5)ncnc23)CC1 [Example 167, cis-[4-({4-[5-(2-Methoxy-ethoxy)-benzo[1,3]dioxol-4-yl]-5H-pyrrolo[3,2-d]pyrimidine-7-carbonyl}-amino)-cyclohexyl]-carbamic acid ethyl ester]
13 | 0.302 nM | O=C(NC1CCN(C(=O)CO)CC1)c1c[nH]c2c(-c3c(OCC4CC4)ccc4c3OCO4)ncnc12 [Example 171, 4-(5-Cyclopropylmethoxy-benzo[1,3]dioxol-4-yl)-5H-pyrrolo[3,2-d]pyrimidine-7-carboxylic acid [1-(2-hydroxy-ethanoyl)-piperidin-4-yl]amide]
14 | 0.347 nM | CCOC(=O)N1CCC(CNC(=O)c2c[nH]c3c(-c4c(OCC5CC5)ccc5c4OCO5)ncnc23)C1 (stereo not shown) [Example 34, 3-({[4-(5-Cyclopropylmethoxy-benzo[1,3]dioxol-4-yl)-5H-pyrrolo[3,2-d]pyrimidine-7-carbonyl]-amino}-methyl)-pyrrolidine-1-carboxylic acid ethyl ester]
15 | 2.04 nM | O=C(N[C@H]1CCN(C(=O)C2(O)CC2)C1)c1c[nH]c2c(-c3c(OCC4CC4)ccc4c3OCO4)ncnc12 [Example 185, 4-(5-Cyclopropylmethoxy-benzo[1,3]dioxol-4-yl)-5H-pyrrolo[3,2-d]pyrimidine-7-carboxylic acid {(S)-1-[1-(1-hydroxy-cyclopropyl)-methanoyl]-pyrrolidin-3-yl}-amide]
16 | 0.219 nM | COCC(=O)N1CCC(NC(=O)c2c[nH]c3c(-c4cc(OC)c(F)cc4OCC4CC4)ncnc23)CC1 [Example 98, 4-(2-Cyclopropylmethoxy-4-fluoro-5-methoxy-phenyl)-5H-pyrrolo[3,2-d]pyrimidine-7-carboxylic acid [1-(2-methoxy-ethanoyl)-piperidin-4-yl]-amide]
17 | 1 nM | CC(=O)N1CC[C@@H](NC(=O)c2c[nH]c3c(-c4c(OCC5CC5)ccc5c4OCO5)ncnc23)C1 [Example 15, 4-(5-Cyclopropylmethoxy-benzo[1,3]dioxol-4-yl)-5H-pyrrolo[3,2-d]pyrimidine-7-carboxylic acid ((R)-1-acetyl-pyrrolidin-3-yl)-amide]
18 | 0.692 nM | COc1cc(-c2ncnc3c(C(=O)N[C@@H]4CCN(C(=O)CO)C4)c[nH]c23)c(OCC2CC2)cc1F [Example 231, 4-(2-Cyclopropylmethoxy-4-fluoro-5-methoxy-phenyl)-5H-pyrrolo[3,2-d]pyrimidine-7-carboxylic acid [(R)-1-(2-hydroxy-acetyl)-pyrrolidin-3-yl]amide]
19 | 14.5 nM | COCCOc1cc(OC)ccc1-c1ncnc2c(C(=O)N[C@H]3CC[C@@H](NC(C)=O)CC3)c[nH]c12 [Example 152, cis-4-[4-Methoxy-2-(2-methoxy-ethoxy)-phenyl]-5H-pyrrolo[3,2-d]pyrimidine-7-carboxylic acid (4-acetylamino-cyclohexyl)-amide]
20 | 2.19 nM | COCC(=O)N1CCC(NC(=O)c2c[nH]c3c(-c4cc(C)ccc4OCC4CC4)ncnc23)CC1 [Example 124, 4-(2-Cyclopropylmethoxy-5-methyl-phenyl)-5H-pyrrolo[3,2-d]pyrimidine-7-carboxylic acid [1-(2-methoxy-acetyl)piperidin-4-yl]-amide]
21 | 2.29 nM | Cc1ccc(OCC2CC2)c(-c2ncnc3c(C(=O)N[C@H]4CC[C@H](NC(=O)CO)CC4)c[nH]c23)c1 [Example 243, trans-4-(2-Cyclopropylmethoxy-5-methyl-phenyl)-5H-pyrrolo[3,2-d]pyrimidine-7-carboxylic acid [4-(2-hydroxy-acetylamino)-cyclohexyl]-amide]
22 | 0.741 nM | COc1ccc(-c2ncnc3c(C(=O)N[C@H]4CC[C@@H](NC(=O)CO)CC4)c[nH]c23)c(OCC2CC2)c1 [Example 202, cis-4-(2-Cyclopropylmethoxy-4-methoxy-phenyl)-5H-pyrrolo[3,2-d]pyrimidine-7-carboxylic acid [4-(2-hydroxy-acetylamino)-cyclohexyl]-amide]

From patent US8445501B2, “Substituted 7-carboxamido-pyrrolo[3,2-d]pyrimidines” (Takeda GmbH, priority 2008, dated 2013)
